Consider 72 compounds from PubChem BioAssay AID179 (DTP/NCI, 2004).

pEC50, pIC50: −log10 of the molar value. Where “and” joins values, the source holds several entries; their conditions need not be identical. Equal entries are not always repeated. Calls of active or inactive are those of the source.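 The calls were made as follows: active = compounds giving half or more protection of infected cells from virus-caused growth loss, again on retest; inactive = the rest.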

The test system of the experiment is CEM cells HIV-1 protection, formazan growth assay. Nature of the experiment: NCI AIDS Antiviral Assay. Particulars: for pIC50: measured here: growth of uninfected CEM cells. The gist of the method: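 Soluble formazan readout of cell growth; CEM cells ± HIV-1; 5 drug concs. ≥50% protection → retest; ≥50% again = moderately active; reproducible 100% = confirmed active.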

Regarding `CC1OC2COC(C)OC2C(C2CN2)O1` (stereo unspecified), the pEC50 (usually the EC50 on a negative log10 scale, so that one unit is a factor of ten) was less than 3.03 and the pIC50 (in general, the negative decadic logarithm of the IC50, by convention in mol/L) is 3.23.
The corresponding values for `COc1ccc(C2CC(c3c(O)ccc4ccccc34)=NN2C(C)=O)cc1OC` (stereo unspecified) are less than 3.70 and 4.33.
The corresponding values for `CC(=O)N1N=C(c2ccc3ccccc3c2O)CC1c1cccs1` (stereo unspecified) are less than 3.70 and 4.92.
For the compound `Cc1n[nH]c(=O)n1C1CC1`, the pEC50 is less than 3.70 and the pIC50 was less than 3.70.
Turning to `CCCCC1CC(c2ccc(Cl)cc2)=NO1` (stereo unspecified), the pEC50 is less than 4.66 and the pIC50 was less than 4.66.
For the compound `Nc1ccc2cc3[nH]c4cc(N)ccc4c3nc2c1`, the pEC50 was less than 5.87 and the pIC50 is 6.47.
`NC(=O)c1cccn1Cc1ccccc1SSc1ccccc1Cn1cccc1C(N)=O`: the pEC50 was less than 4.80 and the pIC50 was 5.15.
For the compound `COCC1OC2(CCC[C@@H]2O)O[C@H]1COC` (stereo partly specified), the outcome was inactive.
On to `CC(=O)O[C@@H]1C(=O)O[C@@H]2CO[C@H](c3ccccc3)O[C@H]12`, for which the pEC50 is less than 3.70 and the pIC50 is less than 3.70.
For `c1snnc1-c1cnns1`, the pEC50 is less than 3.70 and the negative logarithm of the IC50 (pIC50) was less than 3.70.
For the compound `C1CCC(CSSCC2(N3CCCC3)CCCCC2)(N2CCCC2)CC1`, the pEC50 was less than 3.70 and the negative logarithm of the IC50 (pIC50) is less than 4.00.
Regarding `COc1ccc2c(c1)CCCN1CCc3ccccc3C21` (stereo unspecified), the pEC50 is less than 3.70 and the pIC50 was 3.96.
For the compound `OCC(O)CNc1ccnc2cc(Cl)ccc12` (stereo unspecified), the pEC50 was less than 3.20 and the pIC50 is 3.93.
As for `O=C(NCCCCNCCCNC(=O)C(F)(F)F)C(F)(F)F`, the pEC50 was less than 3.70 and the pIC50 was less than 3.70.
Consider `Nc1ncnc(N)c1N=O`, for which the pEC50 was less than 3.70; the pIC50 is 5.23 and 5.79.
`O=C(NCCO)c1c(O)c2ccccc2[nH]c1=O`: the pEC50 was less than 3.70 and the pIC50 is less than 3.70.
`CC(=O)ON1C(=O)c2cccc3cccc(c23)C1=O`: the pEC50 was less than 3.70 and the negative-log IC50 (pIC50) is 4.73.
Consider `CCN(CC)CC(=O)Nc1ccc(Cc2ccc(NC(=O)CN(CC)CC)cc2)cc1`, for which the pEC50 is less than 3.70 and the pIC50 was 4.79.
In the case of `COC[C@H](C)N=CN1CCc2ccccc2C1(Cc1ccccc1)Cc1ccccc1`, the pEC50 is less than 4.48 and the pIC50 was less than 4.48.
As to `N#CC1(Cl)CC2CC1C1N=NN(c3ccccc3)C21` (stereo unspecified), the pEC50 was less than 3.70 and the pIC50 is less than 3.70.
Consider `C/C(=C\Cc1ccc(F)cc1)CCCCCC/C(C)=C/Cc1ccc(F)cc1`, for which the pEC50 is less than 3.70 and the pIC50 is 4.65.
In the case of `Cc1cc2c(ccc3c(C)cc(=O)oc32)o1`, the outcome was inactive.
Regarding `Clc1cc(Cl)c2nncc(N3CC3)c2c1`, the result was inactive.
On to `CC1CN=C(Nc2ccc(F)cc2F)S1` (stereo unspecified), for which the pEC50 is less than 3.70 and the pIC50 is less than 3.70.
Take `C=CCC1([C@H](C)[C@@H](OC(C)=O)c2cc(OC)c(OC)c(OC)c2)C[C@@H](OC)CCC1=O` (stereo partly specified): the pEC50 was less than 3.94 and the pIC50 is 5.22.
Take `O=C(c1cccs1)N(C(=S)OCc1ccccn1)c1ccccc1`: the pEC50 is less than 3.70 and the negative-log IC50 (pIC50) was 4.10.
As to `O=C1C=C(Nc2ccccc2C(=O)CC(=O)C(=O)Nc2ccc(Cl)c(Cl)c2)c2ccccc2C1=O`, the pEC50 was less than 4.57 and the pIC50 is less than 4.57.
With `COC(=O)C(=O)C(C(=O)C(=O)Nc1ccc(C)cc1)c1nc2ccc(C(=O)c3ccccc3)cc2[nH]c1=O` (stereo unspecified), the pEC50 was less than 4.58 and the negative logarithm of the IC50 (pIC50) is less than 4.58.
Consider `C=C(C)C(=O)OC1C[C@H](COC(C)=O)C2CC=C(CO)C2C2OC(=O)C(=C)[C@H]12` (stereo partly specified), for which the pEC50 is less than 3.70 and the pIC50 was 5.04.
With `CN(C(=O)C12C3C4C1C1C4(C(=O)C45C6C7C4C4C5C6C74C)C3C12C)C(C)(C)C` (stereo unspecified), the outcome was inactive.
In the case of `CN1CCOC(C(NC(=O)c2ccccc2)c2ccccc2)C1=O` (stereo unspecified), the pEC50 is less than 3.70 and the pIC50 was less than 3.70.
`COc1ccccc1C1C(C(=O)Nc2ccccc2)=C(C)NC(C)=C1C(=O)Nc1ccccc1`: the pEC50 is less than 4.66 and the pIC50 was less than 4.66.
In the case of `CCCc1cc(=O)oc2c3c(cc(OC)c12)O[C@H](C)[C@@H](C)[C@@H]3O`, the pEC50 is less than 3.70.
For `Cc1cn(C2C[C@H]3ONC[C@H]3O2)c(=O)[nH]c1=O` (stereo partly specified), the pEC50 was less than 3.70 and the negative logarithm of the IC50 (pIC50) was less than 3.70.
For `O=C(/C=C/c1ccncc1)c1ccccc1`, the pEC50 was less than 3.49 and the negative-log IC50 (pIC50) was 5.22.
With `CCOC(=O)NC(=O)c1cn(CCCOC(=O)NCCCCCCNC(=O)OCCCn2cc(C(=O)NC(=O)OCC)c(=O)[nH]c2=O)c(=O)[nH]c1=O`, the outcome was inactive.
Take `O=C1OC(c2ccccc2)=N/C1=C/C=C/c1ccco1`: the result was inactive.
Turning to `Cc1ccc(-c2c3nc(c(-c4ccc(C)cc4)c4ccc([nH]4)c(-c4ccc(C)cc4)c4nc(c(-c5ccncc5)c5ccc2[nH]5)C=C4)C=C3)cc1.Cc1ccc(-c2c3nc(c(-c4ccc(C)cc4)c4ccc([nH]4)c(-c4ccc(C)cc4)c4nc(c(-c5ccncc5)c5ccc2[nH]5)C=C4)C=C3)cc1.O=S(=O)([O-])C(F)(F)F.[Pt+2].c1ccc([PH+](CCC[PH+](c2ccccc2)c2ccccc2)c2ccccc2)cc1`, the outcome was inactive.
As for `C[N+](C)([O-])CCNc1c2ccccc2nc2cccc([N+](=O)[O-])c12`, the pEC50 is less than 4.70 and the pIC50 was 6.45.
The corresponding values for `CCCc1cc(=O)oc2c3c(cc(OC(C)C)c12)O[C@H](C)[C@@H](C)/C3=N/O` are less than 3.70 and 5.42.
In the case of `Cc1c(-c2ccccc2)c(=O)oc2ccc(Cl)cc12`, the outcome was inactive.
With `CC1S/C(=N\N=C\c2ccc(Cl)cc2)N=C1c1c(O)c2ccccc2oc1=O` (stereo unspecified), the pEC50 was less than 3.70 and the negative-log IC50 (pIC50) was 4.44.
Turning to `C=CCC1(C)CCCN(Cc2ccccc2)C1=O` (stereo unspecified), the pEC50 was less than 3.70 and the pIC50 is 3.98.
For the compound `COc1ccc(OC)c(NC(=O)Nc2nccs2)c1`, the pEC50 was less than 3.70 and the pIC50 is less than 3.70.
As for `CC/C=C\C/C=C\C/C=C\CCCCCCCC(=O)OCC(COC1OC(CS(=O)(=O)O)C(O)C(O)C1O)OC(=O)CCCCCCCCCCCCCCC` (stereo unspecified), the pEC50 is less than 5.00 and the pIC50 was 5.25.
Consider `COc1cccc(N(CN2CC=CC2=O)C(C)=O)c1`, for which the result was inactive.
As for `O=c1[nH]c2cccnc2c(=O)n1O`, the pEC50 is less than 3.70 and the pIC50 is 4.16.
Take `NCCSSCCN`: the result was active.
On to `CC1=CCC[C@H]2[C@](C)(CC3=CC(=O)C(SCC(C)C)=CC3=O)[C@@H](C)CC[C@]12C`, for which the pEC50 was less than 3.70 and the negative-log IC50 (pIC50) was 5.67.
On to `CC1C(=O)N=C2C(=CN(Cc3ccccc3)c3ccccc32)C(=O)N1C` (stereo unspecified), for which the outcome was inactive.
For the compound `CCCCCN(CCCCC)C(=O)COc1cc2c(O)c3c(O)c(C)c4c(c13)C(=O)C(C)(O/C=C/C(OC)C(C)C(OC(C)=O)C(C)C(O)C(C)C(O)C(C)/C=C/C=C(\C)C(=O)N2)O4` (stereo unspecified), the pEC50 was less than 3.70 and the pIC50 was 5.11.
The corresponding values for `Cc1ccc(NC(=S)/C(=C(/[O-])c2ccc([N+](=O)[O-])cc2)[n+]2ccccc2)c(C)c1` are less than 3.70 and less than 3.70.
For the compound `COc1ccccc1NC(=S)N/N=C/c1ccccn1`, the pEC50 is less than 6.70 and the negative logarithm of the IC50 (pIC50) was 7.02.
For the compound `CCOC(=O)c1c(SCc2ccccc2)nc2c3ccccc3ccn12`, the pEC50 was less than 3.82 and the pIC50 was less than 3.82.
Consider `COC(=O)C(=O)C(C(=O)C(=O)Nc1ccc([N+](=O)[O-])cc1[N+](=O)[O-])c1nc2ccc([N+](=O)[O-])cc2[nH]c1=O` (stereo unspecified), for which the pEC50 was less than 3.33 and the pIC50 is 3.85.
`CCCC(=O)OC1C(OC(=O)CCC)C(OC(=O)CCC)C(OC(=O)CCC)C(OC(=O)CCC)C1OC(=O)CCC` (stereo unspecified): the pEC50 is less than 3.38 and the pIC50 was less than 3.38.
In the case of `CCCc1n[nH]c(=O)n1N1C(=O)C=CC1=O`, the pEC50 was less than 3.70 and the pIC50 was less than 3.70.
As to `CCSc1c2ccccc2c(-c2nc(F)nc(F)n2)n1CCc1ccccc1`, the pEC50 is less than 4.88 and the pIC50 is less than 4.88.
In the case of `C/C(=N/NC(=S)N(C)CCc1ccccn1)c1cnccn1`, the pEC50 is less than 6.70 and the pIC50 was 7.75.
In the case of `NNC(=O)c1ccc(OCc2nc3ccccc3[nH]2)cc1`, the pEC50 was less than 3.70 and the pIC50 was 4.17.
For `O=C(N=C1[Se]C(=Nc2ccccc2)C(=Nc2ccccc2)N1c1ccc(Cl)cc1)c1ccccc1`, the pEC50 was less than 4.00 and the pIC50 was 4.05.
In the case of `CCN(CC)C(=O)SCCSC(=O)N(CC)CC`, the pEC50 is less than 4.00 and the pIC50 is less than 4.00.
Consider `COc1cccc2c1OCC1Cc3ccccc3OC21` (stereo unspecified), for which the result was inactive.
As to `COC(=O)N1C2CCCCC2=NN(c2ccccc2)N1C(=O)OC` (stereo unspecified), the pEC50 is less than 3.69 and the pIC50 was less than 3.69.
`CCOC(=O)/C(=C\N1C(=O)/C(=C\C(C)=C\c2ccccc2)SC1=S)C(=O)c1ccccc1`: the pEC50 is 4.96 and the pIC50 was 4.87.
On the same counts, the results for `CC1N(O)C(c2ccccc2)C(c2ccccc2)=[N+]1[O-]` (stereo unspecified) are less than 3.70 and less than 3.70.
With `O=C(C(=O)n1ncc(Cl)c(Cl)c1=O)n1ncc(Cl)c(Cl)c1=O`, the pEC50 was less than 4.03 and the pIC50 is 4.30.
In the case of `CCOP(=O)(OCC)c1ccc(=O)[nH]c1-c1cccs1`, the pEC50 was less than 3.70 and the pIC50 was less than 3.70.
With `O=c1[nH]c(-c2ccccc2)nc2c1OCN(Cc1ccccc1)C2`, the pEC50 was less than 3.94 and the negative logarithm of the IC50 (pIC50) was 4.54.
On to `O=C(CC(C(=O)c1ccsc1)c1ccccc1)c1ccccc1` (stereo unspecified), for which the pEC50 is less than 3.70 and the pIC50 is 3.76.
Take `O=C1N=C2Sc3ccc4ccccc4c3N2C1=O`: the pEC50 was less than 3.45 and the pIC50 was 3.74.
For the compound `O=[N+]([O-])c1ccccc1Sc1ccccc1`, the negative logarithm of the EC50 (pEC50) is less than 4.00 and the pIC50 was 4.10.
